Assay results published in ChEMBL document CHEMBL1201862, “PubChem BioAssay data set” (2004).
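Cultured in 96-well plates, cells were exposed to test compound for 48 hours across five concentrations. At the GI50, growth is halved.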 The source made the active and inactive calls. Cut-off read from the data, not from the text of the source: active = GI50 up to about 1.1 µM and inactive = higher.

Assays:
Assay in all cases: DTP human tumour cell line panel, 48 h
NCI/ADR-RES = tested on: NCI/ADR-RES
HCT-15 = tested on: HCT-15
HCC 2998 = tested on: HCC 2998
HOP-62 = tested on: HOP-62
UACC-62 = tested on: UACC-62
EKVX = tested on: EKVX
A498 = tested on: A498
UO-31 = tested on: UO-31
HL-60 = tested on: HL-60
Hs-578T = tested on: Hs-578T
MDA-MB-231 = tested on: MDA-MB-231
HCT-116 = tested on: HCT-116
COLO 205 = tested on: COLO 205
OVCAR-5 = tested on: OVCAR-5
HT-29 = tested on: HT-29
T47D = tested on: T47D
MCF7 = tested on: MCF7
ACHN = tested on: ACHN
SF-268 = tested on: SF-268
DU-145 = tested on: DU-145

SMILES | GI50 (NCI/ADR-RES) | GI50 (HCT-15) [µM] | GI50 (HCC 2998) | GI50 (HOP-62) | GI50 (UACC-62) | GI50 (EKVX) | GI50 (A498) | GI50 (UO-31) | GI50 (HL-60) | GI50 (Hs-578T) | GI50 (MDA-MB-231) | GI50 (HCT-116) | GI50 (COLO 205) | GI50 (OVCAR-5) | GI50 (HT-29) | GI50 (T47D) | GI50 (MCF7) | GI50 (ACHN) | GI50 (SF-268) | GI50 (DU-145)
Nc1nc(N)c(-c2cccc(C(F)(F)F)c2)c(Cc2cccc(C(F)(F)F)c2)n1 | 7.57 µM (inactive) | 1.44 | 3.1 µM (inactive) | 6.05 µM (inactive) | 0.693 µM (active) | 5.92 µM (inactive) | 3.43 µM (inactive) | 6.32 µM (inactive) | 2.2 µM (inactive) | 14.2 µM (inactive) | 13.1 µM (inactive) | 0.64 µM (active) | 6.27 µM (inactive) | 3.48 µM (inactive) | 1.18 µM (inactive) | 12.8 µM (inactive) | 3.84 µM (inactive) | 2.65 µM (inactive) | 5.55 µM (inactive) | 7.71 µM (inactive)
O=C1c2ccccc2CN1c1ccc(O)cc1 | > 100 µM (inactive) | > 100 | > 100 µM (inactive) | > 100 µM (inactive) | > 100 µM (inactive) | > 100 µM (inactive) | > 100 µM (inactive) | – | > 100 µM (inactive) | > 100 µM (inactive) | > 100 µM (inactive) | > 100 µM (inactive) | > 100 µM (inactive) | > 100 µM (inactive) | > 100 µM (inactive) | > 100 µM (inactive) | > 100 µM (inactive) | > 100 µM (inactive) | > 100 µM (inactive) | > 100 µM (inactive)
COc1ccc(/C=N/n2c(Cc3ccc(Cl)cc3)n[nH]c2=O)c(OC)c1 | 12.3 µM (inactive) | 36.3 | 44.6 µM (inactive) | > 100 µM (inactive) | 24.9 µM (inactive) | 33.1 µM (inactive) | 20.4 µM (inactive) | > 100 µM (inactive) | – | 14.3 µM (inactive) | 52.5 µM (inactive) | > 100 µM (inactive) | > 100 µM (inactive) | 38.3 µM (inactive) | 24.9 µM (inactive) | 69 µM (inactive) | 33.6 µM (inactive) | 44.7 µM (inactive) | 13.5 µM (inactive) | 67.8 µM (inactive)
Clc1ccc(/N=C2\c3ccccc3CN2c2ccc(Cl)cc2)cc1 | > 100 µM (inactive) | > 100 | 28.4 µM (inactive) | 63.1 µM (inactive) | > 100 µM (inactive) | > 100 µM (inactive) | > 100 µM (inactive) | > 100 µM (inactive) | – | > 100 µM (inactive) | 53.3 µM (inactive) | 41.4 µM (inactive) | 1.58 µM (inactive) | > 100 µM (inactive) | 19 µM (inactive) | 0.219 µM (active) | 5.2 µM (inactive) | 0.668 µM (active) | 47.1 µM (inactive) | 11.6 µM (inactive)
CCCCC(=O)c1ccc2ccccc2c1O | > 100 µM (inactive) | > 100 | > 100 µM (inactive) | > 100 µM (inactive) | > 100 µM (inactive) | 62.1 µM (inactive) | > 100 µM (inactive) | > 100 µM (inactive) | 51.3 µM (inactive) | > 100 µM (inactive) | 66.4 µM (inactive) | > 100 µM (inactive) | 88.9 µM (inactive) | – | > 100 µM (inactive) | 49.2 µM (inactive) | 52.8 µM (inactive) | > 100 µM (inactive) | > 100 µM (inactive) | > 100 µM (inactive)
Cc1cc2c(O)c(c1)CN(Cc1ccccc1)Cc1cc(C)cc(c1O)CN(Cc1ccccc1)Cc1cc(C)cc(c1O)CN(Cc1ccccc1)C2 | > 100 µM (inactive) | > 100 | > 100 µM (inactive) | 46.2 µM (inactive) | > 100 µM (inactive) | – | > 100 µM (inactive) | > 100 µM (inactive) | > 100 µM (inactive) | > 100 µM (inactive) | > 100 µM (inactive) | > 100 µM (inactive) | > 100 µM (inactive) | > 100 µM (inactive) | > 100 µM (inactive) | > 100 µM (inactive) | > 100 µM (inactive) | > 100 µM (inactive) | > 100 µM (inactive) | > 100 µM (inactive)
O=C(N/N=C(COc1ccc(Cl)cc1)\N=C\c1ccncc1)c1ccncc1 | > 100 µM (inactive) | > 100 | > 100 µM (inactive) | > 100 µM (inactive) | > 100 µM (inactive) | > 100 µM (inactive) | 45.9 µM (inactive) | – | > 100 µM (inactive) | > 100 µM (inactive) | > 100 µM (inactive) | > 100 µM (inactive) | > 100 µM (inactive) | > 100 µM (inactive) | > 100 µM (inactive) | 96.4 µM (inactive) | > 100 µM (inactive) | > 100 µM (inactive) | > 100 µM (inactive) | > 100 µM (inactive)
O=C(N/N=C(COc1cccc(Cl)c1)\N=C\c1cccnc1)c1ccncc1 | > 100 µM (inactive) | > 100 | > 100 µM (inactive) | > 100 µM (inactive) | > 100 µM (inactive) | > 100 µM (inactive) | 40.6 µM (inactive) | – | > 100 µM (inactive) | 83.4 µM (inactive) | > 100 µM (inactive) | > 100 µM (inactive) | 95.9 µM (inactive) | > 100 µM (inactive) | > 100 µM (inactive) | 32.5 µM (inactive) | > 100 µM (inactive) | 91.2 µM (inactive) | > 100 µM (inactive) | > 100 µM (inactive)
CC(C)(Cc1ccccc1)N1C(=O)N1C(C)(C)Cc1ccccc1 | > 100 µM (inactive) | 21.4 | > 100 µM (inactive) | – | 23.8 µM (inactive) | 92.7 µM (inactive) | > 100 µM (inactive) | 14.1 µM (inactive) | 4.78 µM (inactive) | > 100 µM (inactive) | 28.1 µM (inactive) | 40.6 µM (inactive) | 25.6 µM (inactive) | 19.9 µM (inactive) | 15.5 µM (inactive) | 65.9 µM (inactive) | 31.5 µM (inactive) | – | 53.2 µM (inactive) | > 100 µM (inactive)
CN(C)CCCNC(=O)N/N=C/c1ccc(O)cc1 | > 100 µM (inactive) | > 100 | > 100 µM (inactive) | > 100 µM (inactive) | > 100 µM (inactive) | – | > 100 µM (inactive) | > 100 µM (inactive) | > 100 µM (inactive) | > 100 µM (inactive) | > 100 µM (inactive) | > 100 µM (inactive) | > 100 µM (inactive) | > 100 µM (inactive) | > 100 µM (inactive) | > 100 µM (inactive) | > 100 µM (inactive) | > 100 µM (inactive) | > 100 µM (inactive) | > 100 µM (inactive)
CCOC(=O)C(CS)NC(=O)CCCCCCCC(=O)O (centres undefined) | > 100 µM (inactive) | > 100 | > 100 µM (inactive) | > 100 µM (inactive) | > 100 µM (inactive) | > 100 µM (inactive) | > 100 µM (inactive) | > 100 µM (inactive) | > 100 µM (inactive) | > 100 µM (inactive) | > 100 µM (inactive) | > 100 µM (inactive) | > 100 µM (inactive) | > 100 µM (inactive) | > 100 µM (inactive) | > 100 µM (inactive) | > 100 µM (inactive) | 78.3 µM (inactive) | – | > 100 µM (inactive)
C/C(CC(O)(C(F)(F)F)C(F)(F)F)=N\O | > 10 µM (inactive) | > 10 | > 10 µM (inactive) | > 10 µM (inactive) | > 10 µM (inactive) | > 10 µM (inactive) | > 10 µM (inactive) | – | > 10 µM (inactive) | > 10 µM (inactive) | > 10 µM (inactive) | > 10 µM (inactive) | > 10 µM (inactive) | > 10 µM (inactive) | > 10 µM (inactive) | > 10 µM (inactive) | > 10 µM (inactive) | > 10 µM (inactive) | > 10 µM (inactive) | > 10 µM (inactive)
CCN(CC)c1nc(NC2CCCCC2)c2nc(N(CC)CC)nc(NC3CCCCC3)c2n1 | > 100 µM (inactive) | > 100 | > 100 µM (inactive) | 73.1 µM (inactive) | > 100 µM (inactive) | > 100 µM (inactive) | > 100 µM (inactive) | – | > 100 µM (inactive) | > 100 µM (inactive) | 88.1 µM (inactive) | > 100 µM (inactive) | – | > 100 µM (inactive) | > 100 µM (inactive) | > 100 µM (inactive) | > 100 µM (inactive) | > 100 µM (inactive) | > 100 µM (inactive) | > 100 µM (inactive)
Cc1c[nH]c(C(=O)O)c1-c1ccc2c(-c3ccccc3)nc3ccccc3n12 | 17.2 µM (inactive) | 30 | 13.7 µM (inactive) | 15.7 µM (inactive) | 20.7 µM (inactive) | 20.5 µM (inactive) | 13.9 µM (inactive) | 34.4 µM (inactive) | – | 18.6 µM (inactive) | 32.9 µM (inactive) | 34.8 µM (inactive) | 39.4 µM (inactive) | 36 µM (inactive) | 22.8 µM (inactive) | 37.2 µM (inactive) | 34 µM (inactive) | 52.4 µM (inactive) | 28.2 µM (inactive) | 36.7 µM (inactive)
C=CCNC(NCC=C)=C(C(Cl)=C(Cl)Cl)[N+](=O)[O-] | 43.2 µM (inactive) | 16.8 | > 100 µM (inactive) | > 100 µM (inactive) | > 100 µM (inactive) | 67.3 µM (inactive) | > 100 µM (inactive) | 37.5 µM (inactive) | – | 25.4 µM (inactive) | > 100 µM (inactive) | 30.4 µM (inactive) | 19.7 µM (inactive) | > 100 µM (inactive) | 54.6 µM (inactive) | 30.5 µM (inactive) | 35.9 µM (inactive) | 31.8 µM (inactive) | 53.8 µM (inactive) | 78.3 µM (inactive)
